Data from PubChem BioAssay (NCI).
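Results reflect a 48-hour exposure of cells in 96-well plates to compound at five concentrations. GI50: concentration for 50% inhibition of growth. TGI marks complete inhibition of growth.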

How the values were obtained:
Test in all cases: NCI tumour cell line growth inhibition, 48 h
MCF7 breast = tested on: MCF7 breast
OVCAR-8 ovarian = tested on: OVCAR-8 ovarian
MDA-MB-231 breast = tested on: MDA-MB-231 breast
SK-MEL-2 melanoma = tested on: SK-MEL-2 melanoma
SW-620 colon = tested on: SW-620 colon
RPMI-8226 leukemia = tested on: RPMI-8226 leukemia
OVCAR-3 ovarian = tested on: OVCAR-3 ovarian
KM12 colon = tested on: KM12 colon
SK-OV-3 ovarian = tested on: SK-OV-3 ovarian
OVCAR-4 ovarian = tested on: OVCAR-4 ovarian

Compound | TGI (MCF7 breast) [µM] | TGI (OVCAR-8 ovarian) [µM] | TGI (MDA-MB-231 breast) [µM] | TGI (SK-MEL-2 melanoma) [µM] | TGI (SW-620 colon) [µM] | TGI (RPMI-8226 leukemia) [µM] | TGI (OVCAR-3 ovarian) [µM] | TGI (KM12 colon) [µM] | TGI (SK-OV-3 ovarian) [µM] | TGI (OVCAR-4 ovarian) [µM] | GI50 (SK-OV-3 ovarian) [µM] | GI50 (OVCAR-8 ovarian) [µM] | GI50 (SK-MEL-2 melanoma) [µM] | GI50 (RPMI-8226 leukemia) [µM] | GI50 (OVCAR-4 ovarian) [µM] | GI50 (KM12 colon) [µM] | GI50 (MCF7 breast) [µM] | GI50 (MDA-MB-231 breast) [µM] | GI50 (SW-620 colon) [µM] | GI50 (OVCAR-3 ovarian) [µM]
Cc1c2ccccc2cc2cccc[n+]12 | > 100 | > 100 | > 100 | > 100 | > 100 | > 100 | > 100 | 53 |  |  |  |  |  |  |  |  |  |  |  | 
OC1CCSc2ccccc21 (stereo unspecified) |  | > 100 |  | > 100 | > 100 | > 100 | > 100 | > 100 | > 100 | > 100 |  |  |  |  |  |  |  |  |  | 
CC(C)C(=O)CC(c1ccc(Br)cc1)N1N=C(C(C)C)CC1c1ccc(Br)cc1 (stereo unspecified) |  | > 100 |  | > 100 | > 100 |  | > 100 | > 100 | > 100 | > 100 |  |  |  |  |  |  |  |  |  | 
Oc1ccc(Cl)cc1C1=Nn2c(COc3ccc4c(c3)CCCC4)nnc2SC1 | 32.5 | 30.9 | 34.2 | 31.1 | 33 | 19.3 | 29.8 | 29.8 | 42.4 | 13.8 |  |  |  |  |  |  |  |  |  | 
CN(C)c1ccc(/C=C2\C[C@H]3[C@@H]4CC=C5C[C@@H](O)CC[C@]5(C)[C@H]4CC[C@]3(C)[C@H]2O)cc1 | 34.4 | 13.1 | 34.5 | 42.9 | 67.3 | > 100 | 59.8 | > 100 | 88.1 | 98.6 |  |  |  |  |  |  |  |  |  | 
COc1cc(S(=O)(=O)Nc2ccc(-c3csc(/N=C\c4cccc(Oc5ccccc5)c4)n3)cc2)ccc1Cl | 21.1 | 61.9 |  | > 100 | > 100 | 75.6 | > 100 | > 100 |  | > 100 |  |  |  |  |  |  |  |  |  | 
CS(=O)(=O)Nc1cccc(-c2ccc3ncnc(Nc4cncc(Cl)c4)c3c2)c1 |  | > 100 |  | 7.35 |  | 6.77 |  | > 100 | 4.99 | > 100 | 1.34 | 3.22 | 2.64 | 2.14 | 4.16 | 2.92 |  |  |  | 
Nc1csc(-c2scc3c2OCCO3)c1N | 33.4 | 40.1 | 41.4 | 40 | 87.9 | > 100 | 36.1 | 56.5 |  | > 100 |  |  |  |  |  |  |  |  |  | 
CC(CCCCNC(=O)OC(C)(C)C)NC(=O)NC(C)CCCCNC(=O)OC(C)(C)C (stereo unspecified) | > 100 | > 100 | > 100 |  | > 100 |  | > 100 | > 100 | > 100 | > 100 |  |  |  |  |  |  |  |  |  | 
Cc1cc(=O)[nH]c(S(=O)(=O)NC(=O)Nc2cccc(Cl)c2)n1 | > 100 | > 100 | > 100 | > 100 | > 100 | > 100 | > 100 | 32.3 | > 100 | > 41.7 |  |  |  |  |  |  |  |  |  | 
CN(CCN1C(=O)c2cccc3cccc(c23)C1=O)CCN1C(=O)c2cccc3cccc(c23)C1=O | > 100 | 19.2 | 33.6 | > 100 |  |  | 74.8 | > 100 | 16.6 | > 100 |  |  |  |  |  |  |  |  |  | 
CC12OC(C(=O)C13CCC3)C1C(=O)c3c(O)ccc(O)c3C(=O)C12 (stereo unspecified) | 6.2 | 18.1 | 7.47 | > 100 | 3.88 | 3.11 | 2.71 | 10.5 | 54.3 | > 100 | 18.6 | 7.04 | 14.1 | 0.336 | 4.06 | 2.91 | 1.49 | 2.41 | 1.39 | 0.62
CC(C)(C)COS(=O)OCC(C)(C)C | > 100 | > 100 | > 100 | > 100 | > 100 | > 100 | > 100 | > 100 | > 100 | > 100 |  |  |  |  |  |  |  |  |  | 
O=C1/C(=C/c2ccc([N+](=O)[O-])cc2)Sc2scc(-c3cccc([N+](=O)[O-])c3)[n+]21 | > 38.3 | > 54.9 | 16.5 | 30.8 | 3.35 | 11.4 | 15.2 | 24.6 | 30.6 | 31.4 |  |  |  |  |  |  |  |  |  | 
CN(CCc1ccccn1)c1ccc2c(c1)Cc1ccccc1-2 | > 100 | 77.8 | 21.9 |  | > 100 | 84.7 | > 100 | 37.7 | 68.6 | 97.7 |  |  |  |  |  |  |  |  |  | 
Fc1c(F)c(F)c(CSc2nc3ccccc3[nH]2)c(F)c1F | > 100 | > 100 | > 100 | > 100 | > 100 | > 100 | > 100 | > 100 | > 100 | > 100 |  |  |  |  |  |  |  |  |  | 
C#C[C@]1(O)[C@@H](CO)O[C@@H](n2ccc(=O)[nH]c2=O)[C@@H]1O | > 100 | > 100 | 3.77 | 3.32 | > 100 | > 100 |  | > 100 | > 100 | 45.3 |  |  |  |  |  |  |  |  |  | 
C/C=C/C(O)P(=O)(OC)OC (stereo unspecified) | 1.01 | 1.78 | 1.57 | 1 | 0.982 | 0.514 | 0.783 | 0.936 | 2.51 | 1.51 |  |  |  |  |  |  |  |  |  | 
